In patent publication US20160305970A1, “CELL LINES AND METHODS FOR MAKING AND USING THEM” (Chromocell Corporation, priority 2008, published 2016):

Legend:
[1] = system: GABAA (α1β3γ2s, α2β3γ2s, α3β3γ2s and α5β3γ2s); test: In-cell readout assay using halide-sensitive meYFP, GABAA-meYFP-CHO cells; assay type: cell-based, human; conditions: increasing concentrations of GABA ligand
Description: The response of GABAA (subunit combinations of α1β3γ2s (A1), α2β3γ2s (A2), α3β3γ2s (A3) and α5β3γ2s (A5)) expressing CHO cells of the invention to test compounds was evaluated using the following protocol for an in-cell readout assay.
Cells were plated 24 hours prior to assay at 10-25,000 cells per well in 384 well plates in growth media (Ham's F-12 media plus FBS and glutamine). […] The assay plates were then loaded on the FDSS (Hamamatsu Corporation). […] The plates were read for 90 seconds.

[2] = target: T1, GABAA α5β3γ2s (α5) (Homo sapiens, UniProt P18507+P28472+P31644); assay type: cell-based; conditions: CHO cell line α5β3γ2s, membrane potential assay
T1 construct: expressed in transfected cells
T1 sequence (P31644 32-462): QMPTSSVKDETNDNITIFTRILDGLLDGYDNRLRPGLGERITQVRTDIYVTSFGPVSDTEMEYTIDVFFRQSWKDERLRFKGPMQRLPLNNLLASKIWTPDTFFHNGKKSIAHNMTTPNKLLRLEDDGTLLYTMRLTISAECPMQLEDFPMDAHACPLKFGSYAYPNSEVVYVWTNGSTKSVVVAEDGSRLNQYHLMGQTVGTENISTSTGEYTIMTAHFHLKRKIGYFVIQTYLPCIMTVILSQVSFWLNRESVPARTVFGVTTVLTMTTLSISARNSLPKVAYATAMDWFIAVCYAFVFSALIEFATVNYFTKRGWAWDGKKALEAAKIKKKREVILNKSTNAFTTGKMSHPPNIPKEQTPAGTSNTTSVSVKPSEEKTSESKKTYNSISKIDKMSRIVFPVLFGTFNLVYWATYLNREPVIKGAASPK
T1 sequence (P28472 26-473): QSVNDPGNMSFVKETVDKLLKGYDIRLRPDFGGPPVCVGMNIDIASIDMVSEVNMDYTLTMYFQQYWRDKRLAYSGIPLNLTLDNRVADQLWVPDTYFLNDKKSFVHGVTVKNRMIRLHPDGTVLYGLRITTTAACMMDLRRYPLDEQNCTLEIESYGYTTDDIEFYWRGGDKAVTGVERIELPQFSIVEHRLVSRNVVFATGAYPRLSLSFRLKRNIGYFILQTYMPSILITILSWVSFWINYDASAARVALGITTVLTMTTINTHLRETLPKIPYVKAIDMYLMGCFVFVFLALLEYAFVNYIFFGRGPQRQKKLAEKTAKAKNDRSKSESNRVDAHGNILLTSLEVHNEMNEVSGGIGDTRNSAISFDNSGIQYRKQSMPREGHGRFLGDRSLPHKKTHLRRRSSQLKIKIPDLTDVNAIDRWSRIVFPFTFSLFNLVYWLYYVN
T1 sequence (P18507 40-467 isoform P18507-1 limits assumed): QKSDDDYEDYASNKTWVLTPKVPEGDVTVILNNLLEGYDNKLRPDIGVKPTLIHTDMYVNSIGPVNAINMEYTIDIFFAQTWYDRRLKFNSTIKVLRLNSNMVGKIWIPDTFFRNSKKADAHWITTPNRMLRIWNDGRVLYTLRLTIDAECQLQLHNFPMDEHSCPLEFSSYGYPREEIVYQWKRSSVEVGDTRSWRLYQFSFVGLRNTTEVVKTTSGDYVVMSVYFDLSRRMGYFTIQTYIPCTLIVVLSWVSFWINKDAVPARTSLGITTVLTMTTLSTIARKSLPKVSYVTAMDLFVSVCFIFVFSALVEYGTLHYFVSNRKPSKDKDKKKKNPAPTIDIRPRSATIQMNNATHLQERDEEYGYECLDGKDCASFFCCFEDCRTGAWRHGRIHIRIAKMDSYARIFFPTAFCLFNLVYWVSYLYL
Description: Cells were plated 24 hours prior to assay at 10-25,000 cells per well in 384 well plates in growth media (Ham's F-12 media plus FBS and glutamine). […] Incubation was for 1 hour, followed by plate loading onto the high throughput fluorescent plate reader (Hamamastu FDSS). […] The plates were read for 90 seconds.

[3] = system: human CFTR; test: Fluorescence membrane potential assay, stable CFTR-expressing CHO cell line; assay type: cell-based; conditions: stable CFTR-expressing cell line, 15,000 cells/well, 384-well plate
Description: Populations of cells were tested using functional criteria. Membrane potential dye kits (Molecular Devices, MDS) were used according to manufacturer's instructions. Cells were tested at varying densities in 384-well plates (i.e., 12.5×10^3 to 20×10^3 cells/per well) and responses were analyzed. Time between cell plating and assay read was tested. Dye concentration was also tested. Dose response curves and Z' scores were both calculated as part of the assessment of potential functionality. CHO cell lines stably expressing CFTR were maintained under standard cell culture conditions in Ham's F12 medium supplemented with 10% fetal bovine serum and glutamine. On the day before assay, the cells were harvested from stock plates and plated into black clear-bottom 384 well assay plates. The assay plates were maintained in a 37° C. cell culture incubator under 5% CO2 for 22-24 hours. […] For forskolin dose-response experiments, cells of the produced stable CFTR-expressing cell lines, plated at a density of 15,000 cells/well in a 384-well plate were challenged with increasing concentration of forskolin, a known CFTR agonist. The cellular response as a function of changes in cell fluorescence was monitored over time by a fluorescent plate reader (Hamamatsu FDSS). […]-1742 (2001)), indicating the potency of the clone.

[4] = target: human GC-C (guanylate cyclase 2C, GUCY2C) (human) (UniProt P25092); test: cell-based or functional assay
Chain of human GC-C (guanylate cyclase 2C, GUCY2C) (human) (P25092 24-1073): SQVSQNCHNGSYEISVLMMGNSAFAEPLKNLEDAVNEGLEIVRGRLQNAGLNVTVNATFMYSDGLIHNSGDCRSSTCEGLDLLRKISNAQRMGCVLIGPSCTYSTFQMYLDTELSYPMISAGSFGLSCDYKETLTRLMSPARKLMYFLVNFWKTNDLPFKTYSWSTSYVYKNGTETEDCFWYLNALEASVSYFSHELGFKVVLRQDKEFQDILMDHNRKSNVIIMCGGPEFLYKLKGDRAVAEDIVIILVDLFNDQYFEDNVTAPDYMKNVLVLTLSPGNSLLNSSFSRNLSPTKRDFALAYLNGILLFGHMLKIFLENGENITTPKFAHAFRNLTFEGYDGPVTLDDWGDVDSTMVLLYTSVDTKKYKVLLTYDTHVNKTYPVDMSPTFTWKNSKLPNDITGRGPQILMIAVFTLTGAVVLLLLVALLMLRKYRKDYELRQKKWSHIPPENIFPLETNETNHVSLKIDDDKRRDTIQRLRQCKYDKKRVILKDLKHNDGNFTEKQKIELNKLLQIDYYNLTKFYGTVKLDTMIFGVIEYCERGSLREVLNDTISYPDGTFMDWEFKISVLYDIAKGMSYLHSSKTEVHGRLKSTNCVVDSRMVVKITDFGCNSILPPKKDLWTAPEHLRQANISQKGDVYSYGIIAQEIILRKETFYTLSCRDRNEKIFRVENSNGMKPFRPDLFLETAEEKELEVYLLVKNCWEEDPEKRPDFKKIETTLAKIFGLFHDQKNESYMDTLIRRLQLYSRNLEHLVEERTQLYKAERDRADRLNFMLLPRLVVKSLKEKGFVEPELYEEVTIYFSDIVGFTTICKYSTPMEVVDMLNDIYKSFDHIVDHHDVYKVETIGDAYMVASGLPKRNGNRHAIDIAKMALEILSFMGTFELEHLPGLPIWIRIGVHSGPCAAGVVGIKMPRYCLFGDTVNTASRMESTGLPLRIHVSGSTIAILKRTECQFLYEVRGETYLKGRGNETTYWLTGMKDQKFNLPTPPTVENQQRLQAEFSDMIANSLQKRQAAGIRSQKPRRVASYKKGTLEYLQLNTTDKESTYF

NCCCC(=O)O [GABA]
meYFP signal response [1]: increasing quench of meYFP signal

COc1cc(/C=C(\C#N)C(=O)c2ccc(O)c(O)c2)cc(I)c1O [I-OMe Tyrphostin 538]
EC50 Values α5 [2]: α5 Not active

C=C[C@@]1(C)CC(=O)[C@]2(O)[C@@]3(C)[C@@H](O)CCC(C)(C)[C@@H]3[C@H](O)[C@H](OC(C)=O)[C@@]2(C)O1 [forskolin]
EC50 [3]: 256 nM

guanylin (peptide)
EC50 of the cellular response (absorbance as a function of changes in cGMP levels, Direct Cyclic GMP Enzyme Immunoassay Kit) to increasing guanylin [4]: 1.1 nM
level of cGMP [4]: 6 pmol/mL
